According to patent US6362212B1, “Oxime derivative and bactericide containing the same as active ingredient” (Shionogi & Company, Ltd., priority 1994, dated 2002):

What was measured:
[1] = tested on: Sphaerotheca fuliginea; test: Controlling effect on Sphaerotheca fuliginea by foliage application (pot experiment); format: in vivo; settings: foliage spray on cucumber (cv. TSUKUBASHIROIBO) first leaves, infected area after 10 days in greenhouse at 20° C.
Experimental: The following Test Examples illustrate the effects of the fungicide of the present invention. (I. Controlling effects on various plant diseases by foliage application (pot experiment)) A test compound was dissolved in a small amount of N,N-dimethylformamide, and the solution was diluted to a given concentration with distilled water containing a spreader. Thus, a liquid sample to be tested was prepared. The liquid sample was sprayed to test plants, and 24 hours thereafter, pathogens were inoculated by the method described below. […] Seeds of cucumber ([…]) were sown in plastic cups (each 9 cm in diameter), followed by cultivation for 2 to 3 weeks. The liquid test sample in the form of a solution or suspension was sprayed on the surface of their first leaves. The pathogen was inoculated to the leaves by spraying a conidia suspension of Sphaerotheca fuliginea which had been cultured on the cucumber leaves. After the inoculation, the plants were kept in a greenhouse at 20° C. for 10 days. Then, the infected area on the leaf was observed, and the percent control was calculated.

[2] = tested on: Erysiphe graminis f. sp. tritici; test: Controlling effect on Erysiphe graminis f. sp. tritici by foliage application (pot experiment); format: in vivo; settings: foliage spray on wheat (cv. NORIN No. 61) seedlings, infected area after 10 days in greenhouse at 20° C.
Experimental: The following Test Examples illustrate the effects of the fungicide of the present invention. (I. Controlling effects on various plant diseases by foliage application (pot experiment)) A test compound was dissolved in a small amount of N,N-dimethylformamide, and the solution was diluted to a given concentration with distilled water containing a spreader. Thus, a liquid sample to be tested was prepared. The liquid sample was sprayed to test plants, and 24 hours thereafter, pathogens were inoculated by the method described below. […] The seeds of wheat (cv.: NORIN No. 61) were sown in plastic cups (each 9 cm in diameter), followed by cultivation for 2 to 3 weeks. The test compound in the form of a solution or suspension was sprayed to the seedlings, and conidia of Erysiphe graminis f. sp. tritici cultured on wheat leaves were dropped on the test plants to inoculate the plants with the pathogen. After the inoculation, the plants were kept in a greenhouse at 20° C. for 10 days. The infected area on the leaf was observed, and the percent control was calculated.

## CON=C(C1=NCCN1C)c1ccccc1Oc1ccccc1 (mixture of isomers) [compound 1161]
[1]
  Controlling effect on Sphaerotheca fuliginea by foliage application at 500 ppm (percent control): 70 percent control
[2]
  Controlling effect on ErYsiphe graminis f. sp. tritici by foliage application at 500 ppm (percent control): 90 percent control

## CON=C(C1=NCCS1)c1ccccc1Oc1ccccc1 (mixture of isomers) [compound 1515]
[1]
  Controlling effect on Sphaerotheca fuliginea by foliage application at 500 ppm (percent control): 70 percent control
[2]
  Controlling effect on ErYsiphe graminis f. sp. tritici by foliage application at 500 ppm (percent control): 90 percent control

## CCON=C(c1ccon1)c1ccccc1COc1ccccc1C (mixture of isomers) [compound 1665]
[2]
  Controlling effect on ErYsiphe graminis f. sp. tritici by foliage application at 500 ppm (percent control): 70 percent control

## C=CCON=C(c1ccon1)c1ccccc1COc1ccccc1C (mixture of isomers) [compound 1667]
[2]
  Controlling effect on ErYsiphe graminis f. sp. tritici by foliage application at 500 ppm (percent control): 70 percent control

## CON=C(c1ccccc1COc1ccccc1)c1nccn1C (single isomer, unassigned) [101A]
[1]
  Controlling effect on Sphaerotheca fuliginea by foliage application at 500 ppm (percent control): 70 percent control

## CON=C(c1ccccc1COc1ccc(F)cc1)c1nccn1C (single isomer, unassigned) [104A]
[1]
  Controlling effect on Sphaerotheca fuliginea by foliage application at 500 ppm (percent control): 97 percent control
[2]
  Controlling effect on ErYsiphe graminis f. sp. tritici by foliage application at 500 ppm (percent control): 90 percent control

## CON=C(c1ccccc1COc1ccc(F)cc1)c1nccn1C (single isomer, unassigned) [104B]
[2]
  Controlling effect on ErYsiphe graminis f. sp. tritici by foliage application at 500 ppm (percent control): 70 percent control

## CON=C(c1ccccc1COc1ccccc1C)c1nccn1C (single isomer, unassigned) [112B]
[1]
  Controlling effect on Sphaerotheca fuliginea by foliage application at 500 ppm (percent control): 90 percent control

## CON=C(c1ccccc1COc1cccc(C)c1)c1nccn1C (single isomer, unassigned) [113B]
[1]
  Controlling effect on Sphaerotheca fuliginea by foliage application at 500 ppm (percent control): 90 percent control

## CON=C(c1ccccc1COc1cccc(C(F)(F)F)c1)c1nccn1C (single isomer, unassigned) [122B]
[1]
  Controlling effect on Sphaerotheca fuliginea by foliage application at 500 ppm (percent control): 100 percent control

## CON=C(c1ccccc1COc1cc(Cl)ccc1Cl)c1nccn1C (single isomer, unassigned) [131B]
[1]
  Controlling effect on Sphaerotheca fuliginea by foliage application at 500 ppm (percent control): 100 percent control

## CON=C(c1ccccc1COc1ccc(-c2ccccc2)cc1)c1nccn1C (single isomer, unassigned) [144B]
[1]
  Controlling effect on Sphaerotheca fuliginea by foliage application at 500 ppm (percent control): 70 percent control

## CON=C(c1cc(C)no1)c1ccccc1COc1ccccc1Cl (single isomer, unassigned) [605B]
[1]
  Controlling effect on Sphaerotheca fuliginea by foliage application at 500 ppm (percent control): 100 percent control
[2]
  Controlling effect on ErYsiphe graminis f. sp. tritici by foliage application at 500 ppm (percent control): 90 percent control

## CON=C(c1cc(C)no1)c1ccccc1COc1ccc(Cl)cc1C (single isomer, unassigned) [641B]
[1]
  Controlling effect on Sphaerotheca fuliginea by foliage application at 500 ppm (percent control): 100 percent control
[2]
  Controlling effect on ErYsiphe graminis f. sp. tritici by foliage application at 500 ppm (percent control): 90 percent control

## CON=C(c1ncon1)c1ccccc1COc1cc(C)ccc1C (single isomer, unassigned) [836A]
[1]
  Controlling effect on Sphaerotheca fuliginea by foliage application at 500 ppm (percent control): 100 percent control
[2]
  Controlling effect on ErYsiphe graminis f. sp. tritici by foliage application at 500 ppm (percent control): 97 percent control

## CON=C(c1ncon1)c1ccccc1COc1cc(C)ccc1C (single isomer, unassigned) [836B]
[1]
  Controlling effect on Sphaerotheca fuliginea by foliage application at 500 ppm (percent control): 100 percent control
[2]
  Controlling effect on ErYsiphe graminis f. sp. tritici by foliage application at 500 ppm (percent control): 97 percent control

## CON=C(c1noc(C)n1)c1ccccc1COc1cc(C)ccc1C (single isomer, unassigned) [936B]
[1]
  Controlling effect on Sphaerotheca fuliginea by foliage application at 500 ppm (percent control): 97 percent control
[2]
  Controlling effect on ErYsiphe graminis f. sp. tritici by foliage application at 500 ppm (percent control): 90 percent control

## CON=C(C1=NCCN1C)c1ccccc1COc1cccc(C(F)(F)F)c1 (single isomer, unassigned) [1122A]
[2]
  Controlling effect on ErYsiphe graminis f. sp. tritici by foliage application at 500 ppm (percent control): 70 percent control

## CON=C(C1=NCCN1C)c1ccccc1COc1cccc(C(F)(F)F)c1 (single isomer, unassigned) [1122B]
[1]
  Controlling effect on Sphaerotheca fuliginea by foliage application at 500 ppm (percent control): 100 percent control
[2]
  Controlling effect on ErYsiphe graminis f. sp. tritici by foliage application at 500 ppm (percent control): 90 percent control

## CON=C(C1=NCCO1)c1ccccc1Oc1ccccc1 (single isomer, unassigned) [1341A]
[1]
  Controlling effect on Sphaerotheca fuliginea by foliage application at 500 ppm (percent control): 70 percent control
[2]
  Controlling effect on ErYsiphe graminis f. sp. tritici by foliage application at 500 ppm (percent control): 90 percent control

## CON=C(C1=NCCO1)c1ccccc1Oc1ccccc1 (single isomer, unassigned) [1341B]
[1]
  Controlling effect on Sphaerotheca fuliginea by foliage application at 500 ppm (percent control): 70 percent control
[2]
  Controlling effect on ErYsiphe graminis f. sp. tritici by foliage application at 500 ppm (percent control): 90 percent control

## CON=C(c1ccccc1COc1cc(C)ccc1C)c1ccnn1C (single isomer, unassigned) [1554B]
[2]
  Controlling effect on ErYsiphe graminis f. sp. tritici by foliage application at 500 ppm (percent control): 70 percent control

## CON=C(c1ccco1)c1ccccc1COc1cc(C)ccc1C (single isomer, unassigned) [1634A]
[1]
  Controlling effect on Sphaerotheca fuliginea by foliage application at 500 ppm (percent control): 100 percent control
[2]
  Controlling effect on ErYsiphe graminis f. sp. tritici by foliage application at 500 ppm (percent control): 97 percent control

## CON=C(c1ccco1)c1ccccc1COc1cc(C)ccc1C (single isomer, unassigned) [1634B]
[1]
  Controlling effect on Sphaerotheca fuliginea by foliage application at 500 ppm (percent control): 70 percent control

## CON=C(c1ccccc1COc1ccc(Cl)cc1)n1cnc(C)c1 [Compound No. 227]
[1]
  Controlling effect on Sphaerotheca fuliginea by foliage application at 500 ppm (percent control): 97 percent control
[2]
  Controlling effect on ErYsiphe graminis f. sp. tritici by foliage application at 500 ppm (percent control): 70 percent control

## CCON=C(c1ccccc1COc1ccccc1)n1cnc(C)c1 [compound 235]
[2]
  Controlling effect on ErYsiphe graminis f. sp. tritici by foliage application at 500 ppm (percent control): 90 percent control

## CON=C(c1ccccc1COc1ccccc1Cl)n1cncn1 [compound 265]
[2]
  Controlling effect on ErYsiphe graminis f. sp. tritici by foliage application at 500 ppm (percent control): 70 percent control

## CON=C(c1ccccc1COc1ccc(C)cc1)n1cncn1 [compound 270]
[1]
  Controlling effect on Sphaerotheca fuliginea by foliage application at 500 ppm (percent control): 97 percent control
[2]
  Controlling effect on ErYsiphe graminis f. sp. tritici by foliage application at 500 ppm (percent control): 90 percent control

## CON=C(c1ccccc1COc1cc(C)ccc1C)n1cccn1 [compound 294]
[1]
  Controlling effect on Sphaerotheca fuliginea by foliage application at 500 ppm (percent control): 97 percent control

## CON=C(c1nnco1)c1ccccc1COc1ccc(Cl)cc1 [compound 707]
[1]
  Controlling effect on Sphaerotheca fuliginea by foliage application at 500 ppm (percent control): 100 percent control
[2]
  Controlling effect on ErYsiphe graminis f. sp. tritici by foliage application at 500 ppm (percent control): 90 percent control

## CON=C(c1ncon1)c1ccccc1COc1ccccc1Cl [compound 805]
[1]
  Controlling effect on Sphaerotheca fuliginea by foliage application at 500 ppm (percent control): 97 percent control

## CON=C(C1=NCCN1C)c1ccccc1COc1ccccc1 [compound 1101]
[2]
  Controlling effect on ErYsiphe graminis f. sp. tritici by foliage application at 500 ppm (percent control): 90 percent control

## CON=C(C1=NCCN1C)c1ccccc1COc1ccc(C)cc1 [compound 1114]
[1]
  Controlling effect on Sphaerotheca fuliginea by foliage application at 500 ppm (percent control): 70 percent control
[2]
  Controlling effect on ErYsiphe graminis f. sp. tritici by foliage application at 500 ppm (percent control): 70 percent control

## CON=C(C1=NCCN1C)c1ccccc1COc1ccccc1C(F)(F)F [compound 1121]
[1]
  Controlling effect on Sphaerotheca fuliginea by foliage application at 500 ppm (percent control): 100 percent control
[2]
  Controlling effect on ErYsiphe graminis f. sp. tritici by foliage application at 500 ppm (percent control): 90 percent control

## CON=C(C1=NCCO1)c1ccccc1COc1ccccc1Cl [compound 1305]
[1]
  Controlling effect on Sphaerotheca fuliginea by foliage application at 500 ppm (percent control): 70 percent control

## CON=C(C1=NCCO1)c1ccccc1COc1ccc(C)cc1 [compound 1312]
[1]
  Controlling effect on Sphaerotheca fuliginea by foliage application at 500 ppm (percent control): 70 percent control

## CON=C(C1=NCCN1)c1ccccc1COc1ccccc1Cl [compound 1455]
[2]
  Controlling effect on ErYsiphe graminis f. sp. tritici by foliage application at 500 ppm (percent control): 70 percent control

## CON=C(c1ncno1)c1ccccc1COc1cc(C)ccc1C [compound 1590]
[1]
  Controlling effect on Sphaerotheca fuliginea by foliage application at 500 ppm (percent control): 70 percent control

## CON=C(c1cc(C)ns1)c1ccccc1COc1cc(C)ccc1C [compound 1654]
[2]
  Controlling effect on ErYsiphe graminis f. sp. tritici by foliage application at 500 ppm (percent control): 70 percent control

## CON=C(C1=NCCO1)c1ccccc1Oc1ccc(C(F)(F)F)cn1 [compound 1826]
[1]
  Controlling effect on Sphaerotheca fuliginea by foliage application at 500 ppm (percent control): 70 percent control

## CON=C(C1=NCCO1)c1ccccc1Oc1ncc(C(F)(F)F)cc1Cl [compound 1829]
[2]
  Controlling effect on ErYsiphe graminis f. sp. tritici by foliage application at 500 ppm (percent control): 90 percent control

## CON=C(c1noc(C)n1)c1cc(Cl)ccc1Oc1ccc(C(F)(F)F)cn1 [compound 2120]
[1]
  Controlling effect on Sphaerotheca fuliginea by foliage application at 500 ppm (percent control): 70 percent control
